Data: US20070191345A1, “3-((Hetero)arylsulfonyl)-8-'(aminoalkyl)oxyquinolines as 5-ht6 receptor antagonists for the treatment of cns disorders” (GLAXO GROUP LIMITED, priority 2004, published 2007)
Where a name gives a salt, the structure may show the parent alone.

Biological target: T1, human cloned 5-HT6 receptors (Homo sapiens, UniProt P50406)
T1 construct: expressed in transfected cells; host or cells: HeLa cells expressing the cloned 5-HT6 receptor (washed membranes)
Test: Cyclase assay (cAMP production in washed membranes of HeLa 5HT6 cells, 5-HT stimulated)
Type: biochemical
Details: not given
Method: Compounds of the invention may be tested for in vitro biological activity in accordance with the following cyclase assay:
0.5 μl of test compound in 100% dimethylsulfoxide (DMSO) was added to a white, solid 384 well assay plate (for dose response measurements the top of the concentration range is 7.5 μM final). 10 μl of washed membranes of HeLa 5HT6 cells (for preparation see WO 98/27081) in basic buffer (50 mM HEPES pH 7.4 (KOH), 10 mM MgCl2, 100 mM NaCl, 1 μl/ml 3-isobutyl-1-methylxanthine (IBMX) (Sigma-Aldrich)) was added to all wells followed by 10 μl 2×ATP buffer (100 μl/ml ATP and 1 μl/ml 3-Isobutyl-1-methylxanthine (IBMX) (Sigma-Aldrich)) with 5-HT (at a concentration equivalent to a dose response of 4×EC50). The resultant mixture was then incubated at room temperature for 30-45 minutes to allow cAMP production.
cAMP production was then measured using the DiscoveRx™ HitHunter™ chemiluminescence cAMP assay kit (DiscoveRx Corporation, 42501 Albrae Street, Fremont, Calif. 94538; Product Code: 90-0004L) or any other suitable cAMP measurement assay.
IC50 values were estimated from arbitrary designated unit (ADU) measurements from a Perkin Elmer Viewlux instrument using a four parameter logistic curve fit within EXCEL (Bowen, W. P. and Jerman, J. C. (1995), Nonlinear regression using spreadsheets. Trends in Pharmacol. Sci., 16, 413-417). Functional Ki values were calculated using the method of Cheng, Y. C. and Prussof, W. H. (Biochemical Pharmacol (1973) 22 3099-3108). pIC50 and fpKi are the negative log10 of the molar IC50 and functional Ki respectively.

T1 sequence (P50406 whole entry): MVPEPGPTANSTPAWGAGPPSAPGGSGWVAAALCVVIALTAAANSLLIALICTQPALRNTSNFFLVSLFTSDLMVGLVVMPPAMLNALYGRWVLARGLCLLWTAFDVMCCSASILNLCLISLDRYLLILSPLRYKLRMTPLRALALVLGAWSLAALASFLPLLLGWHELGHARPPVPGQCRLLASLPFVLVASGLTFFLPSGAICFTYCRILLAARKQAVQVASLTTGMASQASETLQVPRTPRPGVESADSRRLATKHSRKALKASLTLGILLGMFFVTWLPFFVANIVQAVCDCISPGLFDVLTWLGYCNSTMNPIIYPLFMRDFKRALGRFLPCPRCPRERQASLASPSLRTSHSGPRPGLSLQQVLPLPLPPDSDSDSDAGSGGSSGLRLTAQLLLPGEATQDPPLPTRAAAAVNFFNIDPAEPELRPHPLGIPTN

Structure (SMILES)	Ki
O=S(=O)(c1ccccc1)c1cnc2c(OCC3CC4CCN3CC4)cccc2c1 (stereo not drawn) [Example E22, 8-[(1-Azabicyclo[2.2.2]oct-2-ylmethyl)oxy]-3-(phenylsulfonyl) quinoline, hydrochloride]	< 10 nM

Same assay, conditions: membranes of HeLa 5HT6 cells; 5-HT at 4×EC50; functional Ki calculated by Cheng-Prusoff from IC50; read-out: fpKi (functional pKi, antagonist potency for the 5-HT6 receptor) (converted)

Structure (SMILES)	Ki
CN1CCC[C@H]1COc1cccc2cc(S(=O)(=O)c3ccccc3)cnc12 [Example E2b, 8-({[(2S)-1-Methyl-2-pyrrolidinyl]methyl}oxy)-3-(phenylsulfonyl) quinoline, hydrochloride]	< 10 nM
O=S(=O)(c1ccccc1)c1cnc2c(OCCN3CCCC3)cccc2c1 [Example E4, 3-(Phenylsulfonyl)-8-{[2-(1-pyrrolidinyl)ethyl]oxy}quinoline, hydrochloride]	< 10 nM
O=S(=O)(c1ccccc1)c1cnc2c(O[C@@H]3CCNC3)cccc2c1 [Example E5, 3-(Phenylsulfonyl)-8-[(3R)-3-pyrrolidinyloxy]quinoline, hydrochloride]	< 10 nM
O=S(=O)(c1ccccc1)c1cnc2c(OCC3COCCN3)cccc2c1 (stereo not drawn) [Example E24, 8-[(3-Morpholinylmethyl)oxy]-3-(phenylsulfonyl) quinoline, hydrochloride]	< 10 nM

Results, then the compound that gave them:

Ki	Structure (SMILES)
< 10 nM	CN(C)CCOc1cccc2cc(S(=O)(=O)c3ccccc3)cnc12 [Example E1b, [2-(3-Phenylsulfonylquinoline-8-yloxy)ethyl]dimethylamine, hydrochloride]
< 10 nM	O=S(=O)(c1ccccc1)c1cnc2c(OC[C@@H]3CCCN3)cccc2c1 [Example E3, 3-(Phenylsulfonyl)-8-{[(2S)-2-pyrrolidinylmethyl]oxy}quinoline, hydrochloride]
< 10 nM	CC(Oc1cccc2cc(S(=O)(=O)c3ccccc3)cnc12)C(C)N(C)C (stereo not drawn) [Example E6, Dimethyl(1-methyl-2-{[(3-(phenylsulfonyl)-8-quinolinyl]oxy}propyl)amine, hydrochloride]
< 10 nM	O=S(=O)(c1ccccc1)c1cnc2c(OC[C@H]3CCCN3)cccc2c1 [Example E7, 3-(Phenylsulfonyl)-8-{[(2R)-2-pyrrolidinylmethyl]oxy}quinoline, hydrochloride]
< 10 nM	O=S(=O)(c1ccccc1)c1cnc2c(OC3CCCNC3)cccc2c1 (stereo not drawn) [Example E15, 3-(Phenylsulfonyl)-8-(3-piperidinyloxy) quinoline, hydrochloride]
< 10 nM	CN1CC[C@@H](Oc2cccc3cc(S(=O)(=O)c4ccccc4)cnc23)C1 [Example E17, 8-[[(3R)-1-Methyl-3-pyrrolidinyl]oxy}-3-(phenylsulfonyl) quinoline, hydrochloride]
< 10 nM	CN1CCCC(Oc2cccc3cc(S(=O)(=O)c4ccccc4)cnc23)C1 (stereo not drawn) [Example E23, 8-[(1-Methyl-3-piperidinyl)oxy]-3-(phenylsulfonyl) quinoline, hydrochloride]
